Data set [1] deals with T1, human Galactosylceramidase (GALC) (Homo sapiens, UniProt P54803).
T1 construct: purchased R&D systems
T1 sequence (P54803 43-685): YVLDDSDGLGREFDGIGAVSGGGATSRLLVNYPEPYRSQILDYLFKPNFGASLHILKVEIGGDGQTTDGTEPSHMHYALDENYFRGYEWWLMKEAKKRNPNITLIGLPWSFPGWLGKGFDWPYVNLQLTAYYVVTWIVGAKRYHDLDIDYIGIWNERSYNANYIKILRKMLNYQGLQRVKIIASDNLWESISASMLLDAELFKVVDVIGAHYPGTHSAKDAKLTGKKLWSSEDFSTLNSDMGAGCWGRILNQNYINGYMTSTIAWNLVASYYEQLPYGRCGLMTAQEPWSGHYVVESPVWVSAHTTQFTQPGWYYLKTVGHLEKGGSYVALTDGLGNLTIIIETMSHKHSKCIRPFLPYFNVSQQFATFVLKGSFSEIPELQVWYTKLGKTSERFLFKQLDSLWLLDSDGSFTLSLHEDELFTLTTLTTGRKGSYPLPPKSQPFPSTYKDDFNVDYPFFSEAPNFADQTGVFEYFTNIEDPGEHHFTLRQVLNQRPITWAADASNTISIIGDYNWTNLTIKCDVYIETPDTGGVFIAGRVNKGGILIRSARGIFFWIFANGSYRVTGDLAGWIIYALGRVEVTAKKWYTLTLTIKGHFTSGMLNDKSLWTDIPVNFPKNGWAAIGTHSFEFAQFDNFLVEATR
The data set can be described thus: In vitro kinetic assay with human GALC. The format is biochemical. Particulars: 5 nM recombinant human GALC. As for the experimental part: (§1) For some experiments, fluorescence kinetic assays were performed using a Varian Cary Eclipse Spectrophotometer set for 335/493 nm excitation/emission wavelengths. Slits were set at 10 nm and the detector was set on Medium voltage. Enzymatic reactions with human OGA were carried out in PBS at 37° C. and were started by addition of hOGA (WT, Full-length, expressed in E. coli. as previously described) in a total volume of 160 μL (Starna sub-micro Fluorometer cuvette). For measurements of rates using different concentrations of substrates, a hOGA concentration of 100 nM was used. For hOGA titration, 25 μM of Glyco-BABS were added to various concentration of hOGA. […] EDANS standard curve was established using endpoint fluorescence measurements of serial dilutions of EDANS in the relevant buffer using the same instrument parameters. Inner-Filter effect measurements were carried out in cuvette by measuring fluorescence of several concentrations of EDANS in presence of various concentrations of GlcNAc-BABS. Kinetics with Glc-BABS and GBA enzymes (GBA1 and GBA3 purchased from R&D Systems), kinetics with GALC (R&D systems) and Gal-BABS, pH stability, quenching efficiency, some inner-filter effect experiments and lysates experiments were carried out using a Molecular Devices SpectraMax i3× plate reader. […]

Data set [2] in a line: pH stability of Glyco-BABS. The format is physicochemical. The following applies: 5 μM, up to 72 h, pH 2 to 10. The text has this:
One concern with the Glyco-BABS design was the known lability of acetals under acidic conditions that has been exploited in pH-sensitive prodrugs or linkers for drug delivery.^41,42 However, we recognized that carbohydrate anomeric acetals are chemically distinct from regular acetals. Due to stabilization by the endocyclic oxygen, we expected these bis-acetals would show stability across a range of physiological pH values. We therefore assessed the stability of the bis-acetal motif toward acid and base hydrolysis (FIG. 8). To do so, we tested the pH stability of 5 μM of GlcNAc-Br-BABS 1, GlcNAc-OH-BABS 2, Glc-OH-BABS 6 and Glc-H-BABS 7 at different pH over time. We prepared solutions at various pH by mixing 0.2 M KCl+0.1 M HCl with 0.2 M KCl+0.1 M KOH. Fluorescence of EDANS and Glyco-BABS solutions (5 μM, 45 μL) at different pH was measured at different time points in Nunc 384-well plates using a SpectraMax i3× plate reader. Data (triplicates) support the highly efficient quenching and the stability of these substrates over a wide range of pH.

For data set [3], the target named is T2, GBA1 (Homo sapiens, UniProt P04062).
T2 sequence (P04062 40-536): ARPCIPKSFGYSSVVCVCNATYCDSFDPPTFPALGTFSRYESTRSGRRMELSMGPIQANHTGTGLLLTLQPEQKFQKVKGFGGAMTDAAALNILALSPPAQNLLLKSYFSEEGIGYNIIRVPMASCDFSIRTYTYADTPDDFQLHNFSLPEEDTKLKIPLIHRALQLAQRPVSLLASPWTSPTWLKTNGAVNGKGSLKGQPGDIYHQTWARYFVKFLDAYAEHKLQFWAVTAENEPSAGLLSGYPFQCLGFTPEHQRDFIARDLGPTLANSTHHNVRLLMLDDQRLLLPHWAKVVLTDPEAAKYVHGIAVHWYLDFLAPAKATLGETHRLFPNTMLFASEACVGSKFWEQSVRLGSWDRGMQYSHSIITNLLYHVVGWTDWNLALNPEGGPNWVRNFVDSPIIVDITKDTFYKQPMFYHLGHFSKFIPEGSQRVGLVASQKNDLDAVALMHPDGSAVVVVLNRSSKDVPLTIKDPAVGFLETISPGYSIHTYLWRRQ
The data set can be described thus: In vitro kinetic assay with GBA1. The format is biochemical. Further details: purchased R&D Systems. Particulars: GBA enzymes at 50 nM. As for the experimental part:
as §1

Data on three molecules can be found in patent publication US11396522B2, “Bis-acetal-based substrates for imaging exo-glycosidase activity” (ALECTOS THERAPEUTICS INC., priority 2017, dated 2022).

The structures appear in SMILES notation.

Regarding `CN(C)c1ccc(/N=N/c2ccc(C(=O)NCc3cn(CCOCCO[C@H](O[C@@H]4O[C@H](CO)[C@H](O)[C@H](O)[C@H]4O)[C@@](C)(O)C(=O)NCCNc4cccc5c(S(=O)(=O)O)cccc45)nn3)cc2)cc1` [Compound 5, 5-((2-((2R,3R)-3-(2-(2-(4-((4-((E)-(4-(dimethylamino)phenyl)diazenyl)benzamido)methyl)-1H-1,2,3-triazol-1-yl)ethoxy)ethoxy)-2-hydroxy-2-methyl-3-(((2S,3R,4S,5R,6R)-3,4,5-trihydroxy-6-(hydroxymethyl)tetrahydro-2H-pyran-2-yl)oxy)propanamido)ethyl)amino)naphthalene-1-sulfonic Acid], the “turnover by human GALC” value in data set [1] is “turned over”. For the molecule `CN(C)c1ccc(/N=N/c2ccc(C(=O)NCc3cn(CCOCCO[C@H](O[C@@H]4O[C@H](CO)[C@H](O)[C@H](O)[C@H]4O)[C@@](C)(Br)C(=O)NCCNc4cccc5c(S(=O)(=O)O)cccc45)nn3)cc2)cc1` [Compound 4, 5-((2-((2R,3R)-2-bromo-3-(2-(2-(4-((4-((E)-(4-(dimethylamino)phenyl)diazenyl)benzamido)methyl)-1H-1,2,3-triazol-1-yl)ethoxy)ethoxy)-2-methyl-3-(((2S,3R,4S,5R,6R)-3,4,5-trihydroxy-6-(hydroxymethyl)tetrahydro-2H-pyran-2-yl)oxy)propanamido)ethyl)amino)naphthalene-1-sulfonic Acid], the “turnover by human GALC” value in data set [1] is “turned over”.

Consider `CN(C)c1ccc(/N=N/c2ccc(C(=O)NCc3cn(CCOCCOC(CC(=O)NCCNc4cccc5c(S(=O)(=O)O)cccc45)O[C@@H]4O[C@H](CO)[C@@H](O)[C@H](O)[C@H]4O)nn3)cc2)cc1` (stereo partly drawn) [Compound 7, 5-((2-(3-(2-(2-(4-((4-((E)-(4-(dimethylamino)phenyl)diazenyl)benzamido)methyl)-1H-1,2,3-triazol-1-yl)ethoxy)ethoxy)-3-(((2S,3R,4S,5S,6R)-3,4,5-trihydroxy-6-(hydroxymethyl)tetrahydro-2H-pyran-2-yl)oxy)propanamido)ethyl)amino)naphthalene-1-sulfonic Acid], for which, in data set [2], the “pH stability (increase of fluorescence)” value is reported as “no significant increase of fluorescence”. The “turnover by GBA1” value in data set [3] is “turned over by GBA1 only”.
